From US20230080054A1 (ILDONG PHARMACEUTICAL CO., LTD., priority 2021, published 2023)

Tests used:
human ANO6 [1] = target: T1, human ANO6 (Homo sapiens, UniProt Q4KMQ2); assay: YFP quenching assay (ANO6 ion channel activity); format: cell-based; conditions: 10 μM ionomycin; for inhibition at 1 µM: test compound 1 μM, read-out: Inhibition Level 1 μM
T1 construct: expressed in transfected cells
T1 sequence (Q4KMQ2 1-931 isoform Q4KMQ2-2): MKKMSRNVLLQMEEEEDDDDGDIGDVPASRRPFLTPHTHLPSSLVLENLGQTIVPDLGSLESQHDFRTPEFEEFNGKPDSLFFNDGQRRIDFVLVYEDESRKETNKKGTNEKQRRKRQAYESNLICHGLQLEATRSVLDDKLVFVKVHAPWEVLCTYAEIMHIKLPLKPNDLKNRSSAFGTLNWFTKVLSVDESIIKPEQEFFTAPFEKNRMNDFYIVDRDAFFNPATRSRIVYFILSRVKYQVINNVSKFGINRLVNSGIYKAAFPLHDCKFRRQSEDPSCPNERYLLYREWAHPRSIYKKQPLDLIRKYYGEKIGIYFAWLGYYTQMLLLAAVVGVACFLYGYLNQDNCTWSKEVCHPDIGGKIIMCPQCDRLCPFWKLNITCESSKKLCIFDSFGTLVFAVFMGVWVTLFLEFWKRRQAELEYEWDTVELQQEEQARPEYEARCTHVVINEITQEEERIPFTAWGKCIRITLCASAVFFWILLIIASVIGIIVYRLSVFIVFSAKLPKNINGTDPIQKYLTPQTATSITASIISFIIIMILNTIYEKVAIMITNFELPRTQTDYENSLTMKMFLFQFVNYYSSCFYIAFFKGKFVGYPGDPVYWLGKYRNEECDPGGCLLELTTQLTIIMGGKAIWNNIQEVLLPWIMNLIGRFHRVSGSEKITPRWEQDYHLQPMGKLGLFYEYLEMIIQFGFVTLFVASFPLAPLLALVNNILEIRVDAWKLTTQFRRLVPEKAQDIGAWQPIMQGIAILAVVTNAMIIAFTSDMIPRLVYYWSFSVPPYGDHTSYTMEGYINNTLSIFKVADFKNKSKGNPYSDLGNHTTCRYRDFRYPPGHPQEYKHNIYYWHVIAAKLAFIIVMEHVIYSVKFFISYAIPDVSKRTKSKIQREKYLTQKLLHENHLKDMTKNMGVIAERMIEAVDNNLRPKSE
How it was run: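 FRT cells stably expressing human ANO6 and YFP-H148Q/I152L/F46L, preincubated 10 min at 40° C with compounds (1% DMSO) in PBS. Quench read every 0.4 s after injecting 140 mM SCN- with 10 μM ionomycin; % inhibition from the 3.6–7.6 s fluorescence difference, normalised to no-ionomycin (100%) and ionomycin-only (0%) wells, duplicate or triplicate.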

human ANO6 [2] = target: T1, human ANO6; assay: LACT C2 assay (phosphatidylserine scramblase function assay); format: cell-based; conditions: FRT cells expressing human ANO6, 10 μM ionomycin; for inhibition at 1 µM: test compound 1 μM, read-out: Inhibition Level 1 μM; for inhibition at 0.1 µM: test compound 100 nM, read-out: Inhibition Level 100 nM
How it was run: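 Inhibition was normalised between ionomycin-only (0%) and untreated (100%) wells, with triplicates averaged. Readout was background-corrected Lact-C2-GFP (500 nM) fluorescence from imaged cells. The cells were FRT cells stably expressing human ANO6, given compound at 1% DMSO for 10 min before a 10 min 10 μM ionomycin challenge.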

Row | Compound | inhibition at 1 µM (human ANO6 [1]) | inhibition at 30 µM (human ANO6 [1]; test compound 30 μM, read-out: Inhibition Level 30 μM) | inhibition at 1 µM (human ANO6 [2]) | inhibition at 0.1 µM (human ANO6 [2])
1 | CNC(=O)c1cccc(Nc2ccc(-c3ccccc3)nn2)c1 [Compound 41, N-methyl-3-[(6-phenylpyridazin-3-yl)amino]benzamide] | 30 to 60% | ≥ 60% | < 30% | 
2 | O=C(NCc1ccsc1)c1cccc(Nc2ccc(-c3ccccc3)nn2)c1 [Compound 44, 3-[(6-phenylpyridazin-3-yl)amino]-N-[(thiophen-3-yl)methyl]benzamide] | ≥ 60% |  | < 30% | 
3 | O=C(NCc1ccoc1)c1cccc(Nc2ccc(-c3ccccc3)nn2)c1 [Compound 45, N-[(furan-3-yl)methyl]-3-[(6-phenylpyridazin-3-yl)amino]benzamide] | ≥ 60% |  | < 30% | 
4 | O=C(NCc1ccco1)c1cccc(Nc2ccc(-c3ccccc3)nn2)c1 [Compound 46, N-[(furan-2-yl)methyl]-3-[(6-phenylpyridazin-3-yl)amino]benzamide] | 30 to 60% |  | 30 to 60% | 
5 | O=C(NCCc1ccccc1)c1cccc(Nc2ccc(-c3ccccc3)cc2)c1 [Compound 50, 3-({[1,1′-biphenyl]-4-yl}amino)-N-(2-phenylethyl)benzamide] | ≥ 60% |  | 30 to 60% | 
6 | O=C(NCCc1ccccc1)c1cccc(Nc2cnc(-c3ccccc3)cn2)c1 [Compound 51, N-(2-phenylethyl)-3-[(5-phenylpyrazin-2-yl)amino]benzamide] | ≥ 60% |  | ≥ 60% | 30 to 60%
7 | O=C(NCCc1ccccc1)c1cccc(Nc2ncc(-c3ccccc3)cn2)c1 [Compound 52, N-(2-phenylethyl)-3-[(5-phenylpyrimidin-2-yl)amino]benzamide] | ≥ 60% |  | 30 to 60% | 
8 | O=C(NCCCc1ccccc1)c1cccc(Nc2ccc(-c3ccccc3)cc2)c1 [Compound 53, 3-({[1,1′-biphenyl]-4-yl}amino)-N-(3-phenylpropyl)benzamide] | ≥ 60% |  | ≥ 60% | 
9 | O=C(NCCCc1ccccc1)c1cccc(Nc2cnc(-c3ccccc3)cn2)c1 [Compound 54, N-(3-phenylpropyl)-3-[(5-phenylpyrazin-2-yl)amino]benzamide] | ≥ 60% |  | < 30% | 
10 | Cc1ccc(CNC(=O)c2cccc(Nc3ccc(-c4cccc(F)c4)cc3)c2)o1 [Compound 57, 3-({3′-fluoro-[1,1′-biphenyl]-4-yl}amino)-N-[(5-methylfuran-2-yl)methyl]benzamide] | ≥ 60% |  | ≥ 60% | < 30%
11 | Cc1ccc(CNC(=O)c2cccc(Nc3cnc(-c4cccc(F)c4)cn3)c2)o1 [Compound 58, 3-{[5-(3-fluorophenyl)pyrazin-2-yl]amino}-N-[(5-methylfuran-2-yl)methyl]benzamide] | ≥ 60% |  | < 30% | 
12 | O=C(NCCCc1ccccc1)c1cccc(Nc2ncc(-c3cccc(F)c3)cn2)c1 [Compound 60, 3-{[5-(3-fluorophenyl)pyrimidin-2-yl]amino}-N-(3-phenylpropyl)benzamide] | ≥ 60% |  | ≥ 60% | 30 to 60%
13 | Cc1ccc(CNC(=O)c2cccc(Nc3ccc(C4CCCCC4)nn3)c2)o1 [Compound 63, 3-[(6-cyclohexylpyridazin-3-yl)amino]-N-[(5-methylfuran-2-yl)methyl]benzamide] | 30 to 60% |  | < 30% | 
14 | CCC(CC)NC(=O)c1cccc(Nc2ccc(-c3ccccc3)nn2)c1 [Compound 66, N-(pentan-3-yl)-3-[(6-phenylpyridazin-3-yl)amino]benzamide] | 30 to 60% |  | < 30% | 
15 | O=C(NC1CC1c1ccccc1)c1cccc(Nc2ccc(-c3ccccc3)nn2)c1 (stereo not shown) [Compound 67, N-(2-phenylcyclopropyl)-3-[(6-phenylpyridazin-3-yl)amino]benzamide] | ≥ 60% |  | ≥ 60% | ≥ 60%
16 | Cc1ccc(CNC(=O)c2cccc(Nc3ccc(-c4ccsc4)nn3)c2)o1 [Compound 73, N-[(5-methylfuran-2-yl)methyl]-3-{[6-(thiophen-3-yl)pyridazin-3-yl]amino}benzamide] | ≥ 60% |  | ≥ 60% | < 30%
17 | Cc1ccc(CNC(=O)c2cccc(Nc3ccc(-c4cscc4C)nn3)c2)o1 [Compound 74, N-[(5-methylfuran-2-yl)methyl]-3-{[6-(4-methylthiophen-3-yl)pyridazin-3-yl]amino}benzamide] | ≥ 60% |  | ≥ 60% | 30 to 60%
18 | Cc1ccc(CNC(=O)c2cccc(Nc3ccc(-c4ccc(Cl)cc4)nn3)c2)o1 [Compound 75, 3-{[6-(4-chlorophenyl)pyridazin-3-yl]amino}-N-[(5-methylfuran-2-yl)methyl]benzamide] | 30 to 60% |  | 30 to 60% | 
19 | COc1cccc(CCNC(=O)c2cccc(Nc3ncc(-c4cccc(F)c4)cn3)c2)c1 [Compound 78, 3-{[5-(3-fluorophenyl)pyrimidin-2-yl]amino}-N-[2-(3-methoxyphenyl)ethyl]benzamide] | 30 to 60% |  | ≥ 60% | 30 to 60%
20 | O=C(NCCC1CCCCC1)c1cccc(Nc2ncc(-c3ccccc3)cn2)c1 [Compound 81, N-(2-cyclohexylethyl)-3-[(5-phenylpyrimidin-2-yl)amino]benzamide] | ≥ 60% |  | ≥ 60% | 30 to 60%
21 | O=C(NCCc1cc(F)cc(F)c1)c1cccc(Nc2ncc(-c3ccccc3)cn2)c1 [Compound 82, N-[2-(3,5-difluorophenyl)ethyl]-3-[(5-phenylpyrimidin-2-yl)amino]benzamide] | 30 to 60% |  | < 30% | 
22 | O=C(NCCc1cccc(F)c1)c1cccc(Nc2ncc(-c3ccccc3)cn2)c1 [Compound 90, N-[2-(3-fluorophenyl)ethyl]-3-[(5-phenylpyrimidin-2-yl)amino]benzamide] | ≥ 60% |  | 30 to 60% | 
23 | Cc1ccc(CNC(=O)c2cccc(Nc3ncc(-c4ccc(C)o4)cn3)c2)o1 [Compound 92, N-[(5-methylfuran-2-yl)methyl]-3-{[5-(5-methylfuran-2-yl)pyrimidin-2-yl]amino}benzamide] | < 30% |  | < 30% | 
24 | Cc1ccc(CNC(=O)c2cccc(Nc3ncc(-c4ccccc4C(F)(F)F)cn3)c2)o1 [Compound 98, N-[(5-methylfuran-2-yl)methyl]-3-({5-[2-(trifluoromethyl)phenyl]pyrimidin-2-yl}amino)benzamide] | ≥ 60% |  | 30 to 60% | 
25 | O=C(NCCN1CC2CCC1C2)c1cccc(Nc2ncc(-c3ccccc3)cn2)c1 (stereo not shown) [Compound 105, N-(2-{2-azabicyclo[2.2.1]heptan-2-yl}ethyl)-3-[(5-phenylpyrimidin-2-yl)amino]benzamide] | < 30% |  | < 30% | < 30%
26 | Cc1ccc(CNC(=O)c2cccc(Nc3ncc(-c4cccs4)cn3)c2)o1 [Compound 110, N-[(5-methylfuran-2-yl)methyl]-3-{[5-(thiophen-2-yl)pyrimidin-2-yl]amino}benzamide] | 30 to 60% |  | 30 to 60% | 
27 | Cc1ccc(CNC(=O)c2cccc(Nc3ncc(-c4ccoc4C)cn3)c2)o1 [Compound 112, N-[(5-methylfuran-2-yl)methyl]-3-{[5-(2-methylfuran-3-yl)pyrimidin-2-yl]amino}benzamide] | ≥ 60% |  | 30 to 60% | 
28 | O=C(NCCc1ccccc1)c1cccc(Nc2ccc(-c3ccccc3)cn2)c1 [Compound 114, N-(2-phenylethyl)-3-[(5-phenylpyridin-2-yl)amino]benzamide] | ≥ 60% |  | ≥ 60% | < 30%
29 | O=C(N[C@@H]1C[C@H]1c1ccccc1)c1cccc(Nc2ccc(-c3ccccc3)cn2)c1 [Compound 115, N-[(1R,2S)-2-phenylcyclopropyl]-3-[(5-phenylpyridin-2-yl)amino]benzamide] | ≥ 60% |  | ≥ 60% | ≥ 60%
